Experimental data reported in US20260035365A1, “1H-PYRROLO[3,2-B]PYRIDINE DERIVATIVES AS IRREVERSIBLE INHIBITORS OF MUTANT EGFR FOR THE TREATMENT OF CANCER” (Bayer Aktiengesellschaft, priority 2022, published 2026).
pIC50: −log10 of the molar value.

Legend:
[1] = target: mutEGFR (D770_N771insSVD) (Homo sapiens, UniProt P00533, INS767SVD); assay: Exon20-mutant-EGFR (D770_N771insSVD) TR-FRET kinase assay; type: biochemical; conditions: 2 mM ATP, 15 min preincubation
Procedure, shortened: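 GST-fused human EGFR fragment R669-A1210 carrying the SVD insertion, Sf9-expressed, typically 15 pg/μl, was preincubated with compound for 15 min at 22° C in pH 7.0 Hepes/MgCl2 buffer. Phosphorylation was read by HTRF (665/620 nm ratio), normalised to no-inhibitor and no-enzyme controls.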

[2] = target: mutEGFR (D770_N771insNPG, T790); assay: mutEGFR (D770_N771insNPG, T790) kinase assay; type: biochemical, human
[3] = system: BA/F3 (insSVD) cells; assay: Ba/F3 cell survival assay (Cell Titer-Glo), EGFR-insSVD; type: cell-based; conditions: Mus musculus, BaF3, 48 h, without IL-3, with EGF
Procedure, shortened: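 Ba/F3 cells stably expressing EGFR-insSVD or insSVD T790M via retrovirus (puromycin-selected), switched from IL-3 to 10 ng/mL EGF for 2 days, then plated at 4000 cells/well. Compound added by 100 nL pin transfer; 48 h at 37° C. Viability by CellTiter-Glo luminescence.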

[4] = system: BA/F3 (EGFR D770_N771 insSVD T790M) cells; assay: Ba/F3 cell survival assay (Cell Titer-Glo), EGFR-insSVD T790M; type: cell-based; conditions: Ba/F3 EGFR-D770-N771ins_SVD; 48 h, without IL-3, with EGF
Description: 293T cells from ATCC were transfected with pBABEpuro expression constructs for WT EGFR or EGFR-insSVD, or EGFR-insSVD T790M, and pCL-Eco packaging vector using Fugene-6 transfection reagent from Promega. Plates were incubated at 37° C. for 48 h. Retrovirus was harvested by filtering the media supernatant through a 0.45 μm filter.
Ba/F3 cells purchased from DSMZ were grown in RPMI+10% FBS+10 ng/mL IL-3 and infected with filtered retroviral supernatant at a 1:2 dilution. Polybrene was added to a concentration of 8 μg/mL, plates were spun for 90 min, and incubated for 16 h at 37° C. 2 μg/mL puromycin was added to the infected cells 24 h after infection and cells were continually grown in the presence of puromycin and 10 ng/mL IL-3. Following stably expressing Ba/F3 cell lines were generated: Ba/F3-EGFR-WT, Ba/F3-EGFR-insSVD, Ba/F3-EGFR-insSVD T790M, (Ba/F3-vector-control).
For cell survival assays, Ba/F3 cells were grown to a density of 1-2 million cells per mL, spun down and resuspended in media without IL-3, and replated at a concentration of 200,000-500,000 cells per mL. The cells ectopically expressing WT EGFR, EGFR-insSVD, or EGFR-insSVD T790M were plated with 10 ng/mL Millipore Culture grade EGF. The cells ectopically expressing pBABEpuro empty vector were plated with 10 ng/mL IL-3.
2 days later, cells were plated in 50 μL in a 384 well plate at a concentration of 4000 cells per well for cells assayed in the absence of IL-3 and 2000 cells per well for cells assayed in the presence of IL-3. 100 nL of compound was added to each well using a 100 nL pin head, and plates were incubated at 37° C. for 48 h.
Cell viability was measured by adding 20 μL of Cell Titer-Glo Luminescent Cell Viability Reagent diluted 1:3 in PBS. Plates were sealed with Perkin Elmer Top-Seal, inverted several times to mix, and immediately centrifuged at 1000 rpm for 2 min. Plates were incubated in low light conditions for 8-10 min and luminescence was measured.

mutEGFR (D770_N771insSVD), sequence (P00533 with tags, fused parts or gaps INS767SVD limits assumed): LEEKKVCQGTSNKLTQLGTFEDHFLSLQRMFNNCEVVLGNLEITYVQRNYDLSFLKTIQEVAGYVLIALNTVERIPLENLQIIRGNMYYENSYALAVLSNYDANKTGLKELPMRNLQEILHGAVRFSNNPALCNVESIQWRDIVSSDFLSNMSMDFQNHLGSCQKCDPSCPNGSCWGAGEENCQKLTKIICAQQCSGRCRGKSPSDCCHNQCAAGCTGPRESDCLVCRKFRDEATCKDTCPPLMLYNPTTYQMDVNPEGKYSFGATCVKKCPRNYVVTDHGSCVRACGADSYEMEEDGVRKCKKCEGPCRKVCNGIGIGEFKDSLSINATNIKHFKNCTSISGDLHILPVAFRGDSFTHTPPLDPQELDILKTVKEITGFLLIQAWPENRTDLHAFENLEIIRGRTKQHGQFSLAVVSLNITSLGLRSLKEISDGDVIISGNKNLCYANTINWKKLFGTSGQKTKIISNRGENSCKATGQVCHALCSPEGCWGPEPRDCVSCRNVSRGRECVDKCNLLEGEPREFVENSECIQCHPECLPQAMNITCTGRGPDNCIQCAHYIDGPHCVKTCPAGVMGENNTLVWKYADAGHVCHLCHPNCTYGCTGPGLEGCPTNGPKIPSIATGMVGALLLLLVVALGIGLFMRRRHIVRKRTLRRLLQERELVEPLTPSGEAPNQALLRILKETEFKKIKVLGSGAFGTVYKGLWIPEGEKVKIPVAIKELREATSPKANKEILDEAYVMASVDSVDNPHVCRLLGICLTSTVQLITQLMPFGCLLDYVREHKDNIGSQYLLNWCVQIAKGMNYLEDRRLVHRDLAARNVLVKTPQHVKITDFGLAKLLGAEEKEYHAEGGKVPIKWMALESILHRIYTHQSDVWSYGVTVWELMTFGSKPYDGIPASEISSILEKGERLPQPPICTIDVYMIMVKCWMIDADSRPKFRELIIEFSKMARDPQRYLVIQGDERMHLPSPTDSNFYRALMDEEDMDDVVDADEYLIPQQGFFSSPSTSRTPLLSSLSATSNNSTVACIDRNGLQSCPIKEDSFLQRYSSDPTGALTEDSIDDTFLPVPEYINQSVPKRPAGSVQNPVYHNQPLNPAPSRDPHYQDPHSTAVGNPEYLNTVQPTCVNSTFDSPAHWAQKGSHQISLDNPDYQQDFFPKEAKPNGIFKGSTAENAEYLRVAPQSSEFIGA
mutEGFR (D770_N771insNPG, T790), sequence (P00533 with tags, fused parts or gaps INS770NPG limits assumed): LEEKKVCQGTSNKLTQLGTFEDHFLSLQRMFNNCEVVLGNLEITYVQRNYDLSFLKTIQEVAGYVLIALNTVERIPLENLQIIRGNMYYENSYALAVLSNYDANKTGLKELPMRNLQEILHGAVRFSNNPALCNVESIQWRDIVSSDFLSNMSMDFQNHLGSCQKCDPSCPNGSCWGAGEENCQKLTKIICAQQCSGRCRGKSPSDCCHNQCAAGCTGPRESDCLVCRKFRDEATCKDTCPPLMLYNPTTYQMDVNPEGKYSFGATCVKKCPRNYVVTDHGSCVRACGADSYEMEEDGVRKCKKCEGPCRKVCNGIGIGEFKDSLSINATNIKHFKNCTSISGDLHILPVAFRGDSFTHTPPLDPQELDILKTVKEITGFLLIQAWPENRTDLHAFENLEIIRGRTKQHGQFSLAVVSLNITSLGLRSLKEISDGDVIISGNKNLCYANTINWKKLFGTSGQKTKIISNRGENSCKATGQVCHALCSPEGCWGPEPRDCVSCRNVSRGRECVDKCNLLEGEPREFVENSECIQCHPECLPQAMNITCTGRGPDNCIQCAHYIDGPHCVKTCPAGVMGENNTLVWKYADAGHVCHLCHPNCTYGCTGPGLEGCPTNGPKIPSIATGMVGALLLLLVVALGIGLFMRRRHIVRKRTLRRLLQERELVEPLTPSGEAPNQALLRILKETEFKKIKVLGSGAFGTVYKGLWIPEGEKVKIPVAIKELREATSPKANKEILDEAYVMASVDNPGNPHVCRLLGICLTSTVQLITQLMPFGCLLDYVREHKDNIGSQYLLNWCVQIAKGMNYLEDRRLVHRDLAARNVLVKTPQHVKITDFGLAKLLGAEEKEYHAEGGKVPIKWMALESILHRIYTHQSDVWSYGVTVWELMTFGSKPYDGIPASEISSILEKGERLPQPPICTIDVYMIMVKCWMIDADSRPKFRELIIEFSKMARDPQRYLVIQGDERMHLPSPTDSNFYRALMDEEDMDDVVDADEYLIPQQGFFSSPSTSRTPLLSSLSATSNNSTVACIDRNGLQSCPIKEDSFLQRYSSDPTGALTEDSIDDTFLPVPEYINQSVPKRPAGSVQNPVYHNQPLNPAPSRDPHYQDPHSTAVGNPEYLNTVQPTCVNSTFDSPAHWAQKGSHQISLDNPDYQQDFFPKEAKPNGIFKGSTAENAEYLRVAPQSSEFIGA

SMILES	pIC50 [1]	pIC50 [2]	pIC50 [3]	pIC50 [4]
C=CC(=O)N(C)CCOc1cnccc1-c1[nH]c2cccnc2c1-c1ccc(Cl)c(CC)c1 [Example 20, N-[2-({4-[3-(4-chloro-3-ethylphenyl)-1H-pyrrolo[3,2-b]pyridin-2-yl]pyridin-3-yl}oxy)ethyl]-N-methylprop-2-enamide]	6.44	6.11	5.33	5.05
C=CS(=O)(=O)N(C)CCOc1cnccc1-c1[nH]c2cccnc2c1-c1ccc2cc[nH]c2c1 [Example 30, N-[2-({4-[3-(1H-indol-6-yl)-1H-pyrrolo[3,2-b]pyridin-2-yl]pyridin-3-yl}oxy)ethyl]-N-methylethenesulfonamide]	9.29	8.74	7.21	6.08
C=CC(=O)N(C)CCOc1cnccc1-c1[nH]c2cccnc2c1-c1cccc(C)c1 [Example 9, N-methyl-N-[2-({4-[3-(3-methylphenyl)-1H-pyrrolo[3,2-b]pyridin-2-yl]pyridin-3-yl}oxy)ethyl]prop-2-enamide]	8.22	7.87	6.53	5.06
C=CC(=O)N(C)CCOc1cnccc1-c1[nH]c2cccnc2c1-c1ccccc1OC [Example 17, N-[2-({4-[3-(2-methoxyphenyl)-1H-pyrrolo[3,2-b]pyridin-2-yl]pyridin-3-yl}oxy)ethyl]-N-methylprop-2-enamide]	6.24	5.77	5.09	5.00
C=CC(=O)N1CCC[C@@H]1COc1cnccc1-c1[nH]c2cccnc2c1-c1ccccc1 [Example 35, 1-[(2R)-2-({[4-(3-phenyl-1H-pyrrolo[3,2-b]pyridin-2-yl)pyridin-3-yl]oxy}methyl)pyrrolidin-1-yl]prop-2-en-1-one]	7.27	6.46	5.85	5.00
C=CS(=O)(=O)N1C[C@@H](C)C[C@H]1COc1cnccc1-c1[nH]c2cccnc2c1-c1ccccc1 [Example 111, 2-(3-{[(2S,4S)-1-(ethenesulfonyl)-4-methylpyrrolidin-2-yl]methoxy}pyridin-4-yl)-3-phenyl-1H-pyrrolo[3,2-b]pyridine]	9.87	9.48	7.96	7.11
C=CS(=O)(=O)N1CCC[C@H]1COc1cnccc1-c1[nH]c2cccnc2c1-c1cccc(Cl)c1 [Example 40, 3-(3-chlorophenyl)-2-(3-{[(2S)-1-(ethenesulfonyl)pyrrolidin-2-yl]methoxy}pyridin-4-yl)-1H-pyrrolo[3,2-b]pyridine]	9.71	9.54	8.07	7.17
C=CC(=O)N(C)CCOc1cnccc1-c1[nH]c2cccnc2c1-c1ccc(Cl)c(OC)c1 [Example 15, N-[2-({4-[3-(4-chloro-3-methoxyphenyl)-1H-pyrrolo[3,2-b]pyridin-2-yl]pyridin-3-yl}oxy)ethyl]-N-methylprop-2-enamide]	5.81	5.31	5.03	5.00
CN(C)C/C=C/C(=O)N1CCC[C@H]1COc1cnccc1-c1[nH]c2cccnc2c1-c1ccccc1 [Example 37, (2E)-4-(dimethylamino)-1-[(2S)-2-({[4-(3-phenyl-1H-pyrrolo[3,2-b]pyridin-2-yl)pyridin-3-yl]oxy}methyl)pyrrolidin-1-yl]but-2-en-1-one]	8.43	7.95	6.64	5.04
C=CC(=O)N(C)CCOc1cnccc1-c1[nH]c2cccnc2c1-c1ccc(Cl)cc1 [Example 11, N-[2-({4-[3-(4-chlorophenyl)-1H-pyrrolo[3,2-b]pyridin-2-yl]pyridin-3-yl}oxy)ethyl]-N-methylprop-2-enamide]	7.87	7.34	5.95	5.00
C=CC(=O)N(C)CCOc1cnccc1-c1[nH]c2cccnc2c1-c1cccc(Cl)c1OC [Example 21, N-[2-({4-[3-(3-chloro-2-methoxyphenyl)-1H-pyrrolo[3,2-b]pyridin-2-yl]pyridin-3-yl}oxy)ethyl]-N-methylprop-2-enamide]	6.54	5.65	5.38	5.00
C=CC(=O)N(C)CCOc1cnccc1-c1[nH]c2cccnc2c1-c1cccc(Cl)c1 [Example 22, N-[2-({4-[3-(3-chlorophenyl)-1H-pyrrolo[3,2-b]pyridin-2-yl]pyridin-3-yl}oxy)ethyl]-N-methylprop-2-enamide]	8.17	7.91	6.58	5.12
C=CC(=O)N(C)CCOc1cnccc1-c1[nH]c2ccc(OC)nc2c1-c1ccccc1 [Example 8, N-(2-{[4-(5-methoxy-3-phenyl-1H-pyrrolo[3,2-b]pyridin-2-yl)pyridin-3-yl]oxy}ethyl)-N-methylprop-2-enamide]	6.70	6.28	5.28	5.05
C=CC(=O)N(C)CCOc1cnccc1-c1[nH]c2cccnc2c1-c1ccc(F)c(C)c1 [Example 12, N-[2-({4-[3-(4-fluoro-3-methylphenyl)-1H-pyrrolo[3,2-b]pyridin-2-yl]pyridin-3-yl}oxy)ethyl]-N-methylprop-2-enamide]	8.06	7.85	6.27	5.04
C=CC(=O)N1CCC[C@H]1COc1cnccc1-c1[nH]c2cccnc2c1-c1cccc(Cl)c1 [Example 41, 1-{(2S)-2-[({4-[3-(3-chlorophenyl)-1H-pyrrolo[3,2-b]pyridin-2-yl]pyridin-3-yl}oxy)methyl]pyrrolidin-1-yl}prop-2-en-1-one]	9.50	9.01	7.59	6.11
C=CS(=O)(=O)N(C)CCOc1cnccc1-c1[nH]c2cccnc2c1-c1cccc(Cl)c1 [Example 29, N-[2-({4-[3-(3-chlorophenyl)-1H-pyrrolo[3,2-b]pyridin-2-yl]pyridin-3-yl}oxy)ethyl]-N-methylethenesulfonamide]	9.46	9.10	7.28	5.50
C=CC(=O)N(C)CCCOc1cnccc1-c1[nH]c2cccnc2c1-c1ccccc1 [Example 3, N-methyl-N-(3-{[4-(3-phenyl-1H-pyrrolo[3,2-b]pyridin-2-yl)pyridin-3-yl]oxy}propyl)prop-2-enamide]	5.55	5.47	5.00	5.00
C=CC(=O)N(C)CCOc1cnccc1-c1[nH]c2cc(F)cnc2c1-c1ccccc1 [Example 7, N-(2-{[4-(6-fluoro-3-phenyl-1H-pyrrolo[3,2-b]pyridin-2-yl)pyridin-3-yl]oxy}ethyl)-N-methylprop-2-enamide]	6.83	6.50	5.38	5.16
C=CC(=O)N1CCC[C@H]1COc1cnccc1-c1[nH]c2cccnc2c1-c1cccc(C(F)(F)F)c1 [Example 39, 1-[(2S)-2-{[(4-{3-[3-(trifluoromethyl)phenyl]-1H-pyrrolo[3,2-b]pyridin-2-yl}pyridin-3-yl)oxy]methyl}pyrrolidin-1-yl]prop-2-en-1-one]	8.92	8.28	7.04	5.27
C=CC(=O)N(C)CCOc1cnccc1-c1[nH]c2cccnc2c1-c1ccc(Cl)c(C)c1 [Example 10, N-[2-({4-[3-(4-chloro-3-methylphenyl)-1H-pyrrolo[3,2-b]pyridin-2-yl]pyridin-3-yl}oxy)ethyl]-N-methylprop-2-enamide]	7.14	7.04	5.53	5.00
C=CS(=O)(=O)N1CCC[C@H]1COc1cnccc1-c1[nH]c2cccnc2c1-c1ccccc1 [Example 36, 2-(3-{[(2S)-1-(ethenesulfonyl)pyrrolidin-2-yl]methoxy}pyridin-4-yl)-3-phenyl-1H-pyrrolo[3,2-b]pyridine]	9.98	9.51	8.49	7.35
